Reference: patent publication US11090308B2, “Methods of treating liver disorders or lipid disorders with a THR-beta agonist” (Madrigal Pharmaceuticals, Inc., priority 2016, dated 2021)
Like-named read-outs stand apart in the source and are kept apart here.

Legend:
OATP1B1 = molecular target: T1, OATP1B1 (Homo sapiens, UniProt Q9Y6L6); experiment: In vitro drug transporter assay, OATP1B1; format: in vitro ADME
T1 sequence (Q9Y6L6 1-691): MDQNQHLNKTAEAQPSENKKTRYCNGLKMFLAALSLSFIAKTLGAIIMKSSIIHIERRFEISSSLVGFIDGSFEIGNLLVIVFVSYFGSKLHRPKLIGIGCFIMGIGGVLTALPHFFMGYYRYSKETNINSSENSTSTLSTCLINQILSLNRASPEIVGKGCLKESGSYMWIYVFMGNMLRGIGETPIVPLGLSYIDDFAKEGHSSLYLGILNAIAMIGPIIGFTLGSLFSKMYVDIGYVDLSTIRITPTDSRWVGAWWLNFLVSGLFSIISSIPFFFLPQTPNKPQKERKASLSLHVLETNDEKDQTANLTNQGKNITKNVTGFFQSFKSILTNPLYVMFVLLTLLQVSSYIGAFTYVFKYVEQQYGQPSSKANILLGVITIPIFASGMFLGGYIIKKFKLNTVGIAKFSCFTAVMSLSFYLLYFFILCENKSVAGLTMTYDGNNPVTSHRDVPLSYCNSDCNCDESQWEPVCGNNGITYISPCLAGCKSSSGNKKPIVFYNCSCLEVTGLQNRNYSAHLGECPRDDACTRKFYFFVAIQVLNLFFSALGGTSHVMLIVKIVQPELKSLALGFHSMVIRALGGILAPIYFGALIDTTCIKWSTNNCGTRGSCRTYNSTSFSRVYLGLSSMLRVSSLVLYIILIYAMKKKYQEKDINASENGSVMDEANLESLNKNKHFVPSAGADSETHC
Excerpt: (§1) The following studies have been conducted: (a) in vitro drug protein binding, transporter (organic anion transporting polypeptide [OATP], P-glycoprotein [P-gp], breast cancer-related protein [BCRP], and multiple drug resistance protein 1 [MDR1]), and cytochrome P-450 enzyme assays to investigate absorption, distribution, and excretion; (b) in vivo MGL-3196 rat and dog oral PK and bioavailability studies; (c) in vivo ^14C-MGL-3196 rat and dog oral pharmacokinetics, absorption, excretion, and tissue distribution by quantitative whole-body autoradiography (QWBA) studies; and (d) liver disposition of MGL-3196 using an in vitro sandwiched hepatocyte model system (B-CLEAR® technology) in dog (SCDH) and human (SCHH) hepatocytes.

CYP2D6 = CYP2D6 (Homo sapiens, UniProt P10635); experiment: In vitro Cytochrome P-450 enzyme assay, CYP2D6; format: in vitro ADME
Excerpt: as §1

BSEP = BSEP (Homo sapiens, UniProt O95342); experiment: In vitro drug transporter assay, BSEP; format: in vitro ADME; settings: BSEP-mediated transport of TCA; read-out: Inhibitor of: BSEP, IC50
[1] = Rat oral PK and bioavailability studies; format: in vivo
Excerpt: as §1
Rat & Dog PK/Bioavailability Studies were also performed.

CYP2A6 = molecular target: T2, CYP2A6 (Homo sapiens, UniProt P11509); experiment: In vitro Cytochrome P-450 enzyme assay, CYP2A6; format: in vitro ADME
T2 sequence (P11509 1-494): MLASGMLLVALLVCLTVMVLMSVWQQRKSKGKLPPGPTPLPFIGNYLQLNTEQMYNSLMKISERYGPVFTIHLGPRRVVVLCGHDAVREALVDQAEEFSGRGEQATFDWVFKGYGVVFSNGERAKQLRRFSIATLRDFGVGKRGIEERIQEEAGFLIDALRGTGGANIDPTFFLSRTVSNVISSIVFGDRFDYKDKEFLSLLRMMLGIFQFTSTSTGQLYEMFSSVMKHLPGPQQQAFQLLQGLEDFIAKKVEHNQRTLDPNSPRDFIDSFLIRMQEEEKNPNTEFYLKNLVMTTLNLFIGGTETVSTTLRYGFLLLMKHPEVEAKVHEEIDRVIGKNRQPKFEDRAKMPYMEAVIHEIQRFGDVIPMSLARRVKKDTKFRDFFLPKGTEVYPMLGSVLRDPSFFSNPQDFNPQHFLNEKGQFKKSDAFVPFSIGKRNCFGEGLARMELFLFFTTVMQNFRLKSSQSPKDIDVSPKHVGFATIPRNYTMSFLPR
Excerpt: as §1

CYP2B6 = molecular target: T3, CYP2B6 (Homo sapiens, UniProt P20813); experiment: In vitro Cytochrome P-450 enzyme assay, CYP2B6; format: in vitro ADME
T3 sequence (P20813 1-491): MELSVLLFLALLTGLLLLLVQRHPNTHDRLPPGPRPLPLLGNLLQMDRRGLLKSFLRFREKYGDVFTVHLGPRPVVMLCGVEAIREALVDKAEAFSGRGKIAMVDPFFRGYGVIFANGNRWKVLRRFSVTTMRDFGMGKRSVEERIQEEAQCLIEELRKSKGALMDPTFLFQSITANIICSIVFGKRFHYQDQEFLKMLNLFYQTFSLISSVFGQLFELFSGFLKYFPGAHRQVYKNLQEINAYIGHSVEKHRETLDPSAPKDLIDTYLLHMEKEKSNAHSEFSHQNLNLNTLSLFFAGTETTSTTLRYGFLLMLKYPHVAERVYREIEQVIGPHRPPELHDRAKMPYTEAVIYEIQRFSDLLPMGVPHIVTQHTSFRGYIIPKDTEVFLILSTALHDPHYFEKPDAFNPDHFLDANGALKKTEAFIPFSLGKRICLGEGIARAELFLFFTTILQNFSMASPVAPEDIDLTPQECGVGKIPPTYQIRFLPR
Excerpt: as §1

CYP1A2 = molecular target: T4, CYP1A2 (Homo sapiens, UniProt P05177); experiment: In vitro Cytochrome P-450 enzyme assay, CYP1A2; format: in vitro ADME
T4 sequence (P05177 1-516): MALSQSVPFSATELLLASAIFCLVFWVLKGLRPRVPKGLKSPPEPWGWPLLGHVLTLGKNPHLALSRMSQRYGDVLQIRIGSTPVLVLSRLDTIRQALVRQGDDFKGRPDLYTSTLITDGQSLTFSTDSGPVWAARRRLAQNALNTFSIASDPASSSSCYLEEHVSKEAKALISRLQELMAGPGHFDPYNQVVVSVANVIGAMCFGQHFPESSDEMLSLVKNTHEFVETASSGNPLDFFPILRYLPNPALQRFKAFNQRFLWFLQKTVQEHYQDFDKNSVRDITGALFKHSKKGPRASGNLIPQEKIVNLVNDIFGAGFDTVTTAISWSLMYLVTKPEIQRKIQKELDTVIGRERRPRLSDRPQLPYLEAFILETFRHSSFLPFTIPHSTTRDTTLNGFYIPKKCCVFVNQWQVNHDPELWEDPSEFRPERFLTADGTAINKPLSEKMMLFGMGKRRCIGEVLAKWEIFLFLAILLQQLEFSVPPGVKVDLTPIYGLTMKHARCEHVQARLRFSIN
Excerpt: as §1

CYP2C9 = CYP2C9 (Homo sapiens, UniProt P11712); experiment: In vitro Cytochrome P-450 enzyme assay, CYP2C9; format: in vitro ADME; settings: for IC50: read-out: Inhibitor of: CYP2C9, IC50
CYP3A4 = CYP3A4 (Homo sapiens, UniProt P08684); experiment: In vitro Cytochrome P-450 enzyme assay, CYP3A4; format: in vitro ADME
Excerpt: as §1

Sequence of CYP2C9 (P11712 whole entry): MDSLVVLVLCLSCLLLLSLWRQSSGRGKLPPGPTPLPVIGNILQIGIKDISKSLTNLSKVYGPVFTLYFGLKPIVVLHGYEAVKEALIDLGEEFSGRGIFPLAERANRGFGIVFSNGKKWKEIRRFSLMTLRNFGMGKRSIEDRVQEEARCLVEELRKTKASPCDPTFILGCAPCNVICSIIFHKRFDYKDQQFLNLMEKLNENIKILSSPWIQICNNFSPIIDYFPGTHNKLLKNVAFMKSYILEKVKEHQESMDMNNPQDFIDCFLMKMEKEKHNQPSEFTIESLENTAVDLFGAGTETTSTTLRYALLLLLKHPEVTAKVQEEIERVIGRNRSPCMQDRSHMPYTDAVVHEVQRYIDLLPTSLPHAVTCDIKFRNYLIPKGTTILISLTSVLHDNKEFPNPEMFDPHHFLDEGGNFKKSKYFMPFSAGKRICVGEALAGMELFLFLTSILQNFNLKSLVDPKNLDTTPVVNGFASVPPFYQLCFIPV
Sequence of CYP2D6 (P10635 whole entry): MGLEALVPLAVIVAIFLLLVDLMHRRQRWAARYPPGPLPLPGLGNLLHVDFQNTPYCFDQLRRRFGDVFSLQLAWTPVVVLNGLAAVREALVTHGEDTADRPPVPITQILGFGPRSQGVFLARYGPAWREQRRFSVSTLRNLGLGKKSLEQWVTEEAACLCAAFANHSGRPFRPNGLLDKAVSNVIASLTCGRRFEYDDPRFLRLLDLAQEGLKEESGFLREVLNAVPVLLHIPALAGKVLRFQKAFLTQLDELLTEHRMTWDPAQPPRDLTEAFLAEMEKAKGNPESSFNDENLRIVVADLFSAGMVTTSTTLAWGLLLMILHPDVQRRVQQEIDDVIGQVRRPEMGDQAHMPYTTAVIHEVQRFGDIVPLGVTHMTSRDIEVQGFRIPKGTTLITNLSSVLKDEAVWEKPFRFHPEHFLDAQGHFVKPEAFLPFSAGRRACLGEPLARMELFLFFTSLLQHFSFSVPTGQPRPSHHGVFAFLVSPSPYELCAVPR
Sequence of CYP3A4 (P08684 2-503 limits assumed): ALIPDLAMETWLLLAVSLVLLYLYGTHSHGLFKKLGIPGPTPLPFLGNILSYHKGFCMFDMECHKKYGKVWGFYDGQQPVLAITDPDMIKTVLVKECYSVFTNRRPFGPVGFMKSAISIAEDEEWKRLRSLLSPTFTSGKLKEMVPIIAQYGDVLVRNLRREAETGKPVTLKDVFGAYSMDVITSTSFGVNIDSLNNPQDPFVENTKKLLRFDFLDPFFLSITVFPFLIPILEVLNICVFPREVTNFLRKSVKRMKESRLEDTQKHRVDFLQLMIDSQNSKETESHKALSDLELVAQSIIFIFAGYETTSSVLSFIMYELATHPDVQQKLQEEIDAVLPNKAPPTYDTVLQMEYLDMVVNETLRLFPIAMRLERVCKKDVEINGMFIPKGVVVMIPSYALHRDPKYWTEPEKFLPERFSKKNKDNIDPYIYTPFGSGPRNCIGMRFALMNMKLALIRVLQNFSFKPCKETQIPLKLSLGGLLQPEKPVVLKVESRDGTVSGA
Sequence of BSEP (O95342 whole entry, species assumed): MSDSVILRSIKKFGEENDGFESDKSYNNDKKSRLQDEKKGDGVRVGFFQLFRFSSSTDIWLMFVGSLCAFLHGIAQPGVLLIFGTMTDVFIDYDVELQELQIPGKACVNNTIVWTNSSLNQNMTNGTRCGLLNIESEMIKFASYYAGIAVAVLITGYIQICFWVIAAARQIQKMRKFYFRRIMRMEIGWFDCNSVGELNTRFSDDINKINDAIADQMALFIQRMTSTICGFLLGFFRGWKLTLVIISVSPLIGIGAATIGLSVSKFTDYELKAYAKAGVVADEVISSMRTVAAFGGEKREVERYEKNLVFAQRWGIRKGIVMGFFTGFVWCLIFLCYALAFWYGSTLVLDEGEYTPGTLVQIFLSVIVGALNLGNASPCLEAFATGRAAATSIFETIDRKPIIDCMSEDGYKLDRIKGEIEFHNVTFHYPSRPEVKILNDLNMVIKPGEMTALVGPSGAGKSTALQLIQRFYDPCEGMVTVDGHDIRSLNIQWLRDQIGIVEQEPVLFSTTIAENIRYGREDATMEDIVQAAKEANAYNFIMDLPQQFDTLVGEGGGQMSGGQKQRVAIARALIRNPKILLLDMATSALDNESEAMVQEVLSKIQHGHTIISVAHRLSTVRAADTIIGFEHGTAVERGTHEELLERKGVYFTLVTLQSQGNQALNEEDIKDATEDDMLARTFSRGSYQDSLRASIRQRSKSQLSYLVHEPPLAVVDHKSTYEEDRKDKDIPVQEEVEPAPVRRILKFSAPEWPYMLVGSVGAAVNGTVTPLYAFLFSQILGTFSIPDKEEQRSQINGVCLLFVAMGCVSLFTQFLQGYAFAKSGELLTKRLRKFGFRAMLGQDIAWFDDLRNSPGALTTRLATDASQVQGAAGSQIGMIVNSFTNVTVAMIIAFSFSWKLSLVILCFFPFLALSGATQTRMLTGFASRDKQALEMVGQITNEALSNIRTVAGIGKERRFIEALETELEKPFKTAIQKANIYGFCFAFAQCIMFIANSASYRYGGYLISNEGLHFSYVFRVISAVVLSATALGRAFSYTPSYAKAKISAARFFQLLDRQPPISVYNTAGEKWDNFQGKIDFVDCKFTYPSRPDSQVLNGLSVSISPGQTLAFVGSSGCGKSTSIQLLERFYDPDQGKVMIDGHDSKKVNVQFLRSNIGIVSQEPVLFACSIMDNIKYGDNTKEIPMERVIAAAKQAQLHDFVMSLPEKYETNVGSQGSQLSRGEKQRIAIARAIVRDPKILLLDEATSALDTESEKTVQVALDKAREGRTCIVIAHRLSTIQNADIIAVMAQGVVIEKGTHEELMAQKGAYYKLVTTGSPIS

| Compound | Substrate for: OATP1B1 (OATP1B1) | Inhibitor of: OATP1B1, % inhibition (OATP1B1; @ 10 uM Pravastatin) [%] | IC50 (OATP1B1; read-out: Inhibitor of: OATP1B1, IC50) [µM] | Inhibitor of: CYP2D6 (CYP2D6) | IC50 (BSEP) [µM] | bioavailability ([1]; rat, plasma, po) [%] | half-life ([1]; rat, plasma, rats, oral dosing, read-out: mean elimination half-life) [h] | time of maximum plasma concentrations ([1]; rats, oral dosing) [h] | Inhibitor of: CYP2A6 (CYP2A6) | Inhibitor of: CYP2B6 (CYP2B6) | Inhibitor of: CYP1A2 (CYP1A2) | Substrate for: CYP2C9 (CYP2C9) | IC50 (CYP2C9) [µM] | Inhibitor of: CYP3A4 (CYP3A4) | inhibition at 10 µM (OATP1B1; @10 uM, insignificant, read-out: Inhibitor of: OATP1B1, % inhib) [%] | IC50 (CYP2D6; read-out: Inhibitor of: CYP2D6, IC50) [µM] | IC50 (CYP2B6; range given jointly for CYP2B6, CYP2C9, CYP2C19, weak, read-out: Inhibitor of: CYP2B6, IC50) [µM] | IC50 (CYP1A2; read-out: Inhibitor of: CYP1A2, IC50) [µM] | IC50 (CYP2C9; range given jointly for CYP2B6, CYP2C9, CYP2C19, weak) [µM] |
| --- | --- | --- | --- | --- | --- | --- | --- | --- | --- | --- | --- | --- | --- | --- | --- | --- | --- | --- | --- |
| CC(C)c1cc(Oc2c(Cl)cc(-n3nc(C#N)c(=O)[nH]c3=O)cc2Cl)n[nH]c1=O [MGL-3196, 2-(3,5-dichloro-4-((5-isopropyl-6-oxo-1,6-dihydropyridazin-3-yl)oxy)phenyl)-3,5-dioxo-2,3,4,5-tetrahydro-1,2,4-triazine-6-carbonitrile] | OATP1B1; | 29 | 3.7 | not an inhibitor | 34.7 | 45 to 98 | 2.5 to 7 | 2 to 6 | not an inhibitor | not an inhibitor | not an inhibitor | CYP2C9; | 22 | CYP3A4 (weak inhibitor) |  |  |  |  |  |
| CC(CO)c1cc(Oc2c(Cl)cc(-n3nc(C#N)c(=O)[nH]c3=O)cc2Cl)n[nH]c1=O (centres unmarked) [MGL-3623] | OATP1B1 |  |  |  |  |  |  |  |  |  |  |  |  |  | 23 | > 50 | 24 to 35 | > 50 | 24 to 35 |
